Laboratory results as given in patent publication US11214803B2, “Modulators of YAP1 expression” (Ionis Pharmaceuticals, Inc., priority 2019, dated 2022).

What was measured:
[1] = rat, in vivo, sc, 50 mg/kg
Experimental: Male Sprague-Dawley rats were maintained on a 12-hour light/dark cycle and fed ad libitum with Purina normal rat chow. Groups of 4 Sprague-Dawley rats each were weekly injected subcutaneously with 50 mg/kg of Ionis oligonucleotide for 6 weeks (total 7 doses). Forty-eight hours after the last dose, the rats were euthanized; and organs, urine and plasma were harvested for further analysis.
To evaluate the effect of Ionis oligonucleotides on kidney function, urinary levels of total protein and creatinine were measured using an automated clinical chemistry analyzer (Hitachi Olympus AU400c, Melville, N.Y.).

[2] = Cynomolgus monkey tolerability, hematology (Example 34); type: in vivo, cynomolgus monkeys; conditions: for BAS / EOS / HCT / HGB / LUC / LYM / MCH / MCHC / MCV / MON / NEU / PLT / RBC / RCDW / Retic / WBC: cynomolgus monkey, in vivo, sc, 35 mg/kg; for MPV: cynomolgus monkeys, 35 mg/kg subcutaneously, day 44
Experimental: To evaluate any effect of Ionis oligonucleotides in cynomolgus monkeys on hematologic parameters, blood samples of approximately 0.5 mL of blood was collected from each of the available study animals on day 44. The samples were collected in tubes containing K2-EDTA. Samples were analyzed for red blood cell (RBC) count, Hemoglobin (HGB), Hematocrit (HCT), Mean corpuscular volume (MCV), mean corpuscular hemoglobin (MCH), mean corpuscular hemoglobin concentration (MCHC), RBC Distribution Width (RCDW), reticulocyte count (Retic), platelet count (PLT), mean platelet volume (MPV), white blood cells (WBC) count, individual white blood cell counts, such as that of monocytes (MON), neutrophils (NEU), lymphocytes (LYM), eosinophils (EOS), basophils (BAS), and large unstained cells (LUC) using an ADVIA2120i hematology analyzer (Siemens, USA).

[3] = Cynomolgus monkey tolerability, coagulation (Example 34); type: in vivo; conditions: cynomolgus monkeys, 35 mg/kg subcutaneously, day 44
Experimental: To evaluate effect of Ionis modified oligonucleotides on coagulation in cynomolgus monkeys, blood samples of approximately 0.9 mL were collected from each of the available study animals on day 44. The samples were collected in tubes containing 3.2% sodium citrate. Coagulation parameters tested include Activated partial thromboplastin time (APTT), prothrombin time (PT) and Figrinogen (FIB).

[4] = Tolerability in Sprague-Dawley rats, plasma chemistry markers (Example 22); type: in vivo; conditions: male Sprague-Dawley rats, 50 mg/kg s.c. weekly for 6 weeks (7 doses), 48 hours after last dose
Experimental: Sprague-Dawley rats are a multipurpose model used for safety and efficacy evaluations. The rats were treated with Ionis modified oligonucleotides from the studies described in the Examples above and evaluated for changes in the levels of various plasma chemistry markers.

[5] = tested on: Yap1 mRNA; test: Inhibition of human Yap1 mRNA in SNU449 hepatocellular carcinoma xenograft tumors (Example 26); type: in vivo; conditions: SNU449 xenografts in NSG mice, 50 mg/kg twice weekly for five days, relative to PBS treated animals
Outline: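 Female NSG mice bearing subcutaneous SNU449 xenografts (about 100 mm^3) dosed with modified oligonucleotides at 50 mg/kg twice weekly for five days, four per group. Tumour Yap1 mRNA measured by RT-qPCR, normalized to actin-beta, expressed as % of PBS-treated controls.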

[6] = tested on: Yap1 mRNA; test: Yap1 mRNA in SCC25 cells, RNA analysis (Example 25); type: cell-based, human; conditions: free uptake, 48 hours, RTS4814, normalized to actin-beta
Experimental: Modified oligonucleotides described in the studies above were tested at various doses in squamous cell carcinoma cell SCC25. A control oligonucleotide 792169 (a 3-10-3 cET gapmer with a full phosphorothioate backbone, […], designated herein as SEQ ID No.: 2940; is not complementary to any known human gene) was also tested.
Cultured SCC25 cells at a density of 5,000 cells per well were treated using free uptake with modified oligonucleotides diluted to concentrations described in the tables below. After approximately 48 hours, Yap1 mRNA levels were measured as previously described using the Human Yap1 primer-probe set RTS4814. Yap1 mRNA levels were normalized to actin-beta content, as measured by primer probe set RTS5002 (forward sequence […], designated herein as SEQ ID NO.: 20; reverse sequence […], designated herein as SEQ ID NO.: 21; probe sequence […], designated herein as SEQ ID NO.: 22). Results are presented in the tables below as percent control of the amount of Yap1 mRNA relative to untreated control cells (% UTC).

[7] = tested on: Yap1 mRNA; test: Dose-dependent inhibition of human Yap1 in A-431 cells (Example 24, 11,000 cells per well, RTS36584, normalized to GAPDH); type: cell-based; conditions: free uptake, 48 hours; for Yap1 mRNA, % UTC: RTS36584, normalized to GAPDH; for IC50: linear regression on a log/linear plot
Experimental: Modified oligonucleotides described in the studies above were tested at various doses in A-431 cells. Cultured A-431 cells at a density of 11,000 cells per well were treated using free uptake with modified oligonucleotides diluted to concentrations described in the tables below. After approximately 48 hours, Yap1 mRNA levels were measured as previously described using the Human Yap1 primer-probe set RTS36584. Yap1 mRNA levels were normalized to GAPDH content, as measured by primer probe set RTS104 (forward sequence […], designated herein as SEQ ID NO.: 17; reverse sequence […], designated herein as SEQ ID NO.: 18; probe sequence […], designated herein as SEQ ID NO.: 19). Results are presented in the tables below as percent control of the amount of Yap1 mRNA relative to untreated control cells (% UTC). IC50s were calculated using a linear regression on a log/linear plot of the data in excel.

[8] = Cynomolgus monkey tolerability, kidney and liver function markers (Example 34); conditions: cynomolgus monkeys, 35 mg/kg subcutaneously, day 44
Experimental: Prior to the study, the monkeys were kept in quarantine during which the animals were observed daily for general health. The monkeys were 2-4 years old and weighed 2-4 kg. Eleven groups of 4 randomly assigned male cynomolgus monkeys each were injected subcutaneously with Ionis oligonucleotide or saline in a clock-wise rotation between four different sites on the back. Following loading doses on days 1, 3, 5 and 7, the monkeys were dosed once per week (on days 14, 21, 28, 35, and 42) with 35 mg/kg of Ionis oligonucleotide.
To evaluate the effect of Ionis oligonucleotides on hepatic and kidney function, blood samples were collected from all the study groups on day 44. The monkeys were fasted overnight prior to blood collection. Blood was collected in tubes without anticoagulant for serum separation. The tubes were kept at room temperature for a minimum of 90 minutes and then centrifuged at 3000 rpm for 10 minutes to obtain serum. Levels of various liver function markers were measured using a Toshiba 200FR NEO chemistry analyzer (Toshiba Co., Japan).

1197270 (TTAAAGTGTATGTCAG; cEt gapmer with 2'-OMe nucleoside, phosphorothioate, further chemistry not given here) [compound 1197270]
URINE P/C ratio (total protein to creatinine ratio) [1]: 14
BAS [2]: 0.4%
EOS [2]: 2.7%
HCT [2]: 44%
HGB [2]: 12 g/dL
LUC [2]: 1.2%
LYM [2]: 54%
MCH [2]: 22 pg
MCHC [2]: 28 g/dL
MCV [2]: 79 fL
MON [2]: 3.5%
NEU [2]: 38%
PLT [2]: 452 10^3/μL
RBC [2]: 5.6e+06 µL⁻¹
RCDW [2]: 12%
Retic [2]: 1.1%
WBC [2]: 10600 µL⁻¹
MPV [2]: 7.1 fL
APTT [3]: 17 s
FIB [3]: 257 mg/dL
PT [3]: 10 s
ALT [4]: 84 U/L
AST [4]: 120 U/L
BUN [4]: 24 mg/dL
TBIL [4]: 0.19 mg/dL
Yap1 mRNA in tumors, % control [5]: 54 % control
Yap1 mRNA, % UTC ([6]; 0.04 μM): 48 % UTC
Yap1 mRNA, % UTC ([6]; 0.2 μM): 24 % UTC
Yap1 mRNA, % UTC ([6]; 1 μM): 12 % UTC
Yap1 mRNA, % UTC ([6]; 5 μM): 7 % UTC
Yap1 mRNA, % UTC ([7]; 0.002 μM): 0 % UTC
Yap1 mRNA, % UTC ([7]; 0.008 μM): 2 % UTC
Yap1 mRNA, % UTC ([7]; 0.04 μM): 26 % UTC
Yap1 mRNA, % UTC ([7]; 0.2 μM): 80 % UTC
Yap1 mRNA, % UTC ([7]; 1 μM): 99 % UTC
IC50 [7]: 20 nM
ALB [8]: 3.7 g/dL
ALP [8]: 1215 IU/L
ALT [8]: 84 IU/L
AST [8]: 78 IU/L
BUN [8]: 27 mg/dL
CREA [8]: 0.9 mg/dL
GGT [8]: 75 IU/L
GLO [8]: 3.1 g/dL
GLU [8]: 115 mg/dL
HDL [8]: 102 mg/dL
LDL [8]: 48 mg/dL
TBIL [8]: 0.2 mg/dL
TG [8]: 31 mg/dL
TP [8]: 6.8 g/dL

1198605 (GTAATATTGCAATCTG; modified gapmer, further chemistry not given here) [compound 1198605]
URINE P/C ratio (total protein to creatinine ratio) [1]: 28
BAS [2]: 0.4%
EOS [2]: 0.8%
HCT [2]: 46%
HGB [2]: 13 g/dL
LUC [2]: 0.5%
LYM [2]: 51%
MCH [2]: 22 pg
MCHC [2]: 29 g/dL
MCV [2]: 75 fL
MON [2]: 2.8%
NEU [2]: 44%
PLT [2]: 385 10^3/μL
RBC [2]: 6.1e+06 µL⁻¹
RCDW [2]: 13%
Retic [2]: 1.1%
WBC [2]: 10500 µL⁻¹
MPV [2]: 8.1 fL
APTT [3]: 23 s
FIB [3]: 236 mg/dL
PT [3]: 9 s
ALT [4]: 46 U/L
AST [4]: 76 U/L
BUN [4]: 18 mg/dL
TBIL [4]: 0.33 mg/dL
Yap1 mRNA in tumors, % control [5]: 55 % control
Yap1 mRNA, % UTC ([6]; 0.04 μM): 48 % UTC
Yap1 mRNA, % UTC ([6]; 0.2 μM): 23 % UTC
Yap1 mRNA, % UTC ([6]; 1 μM): 10 % UTC
Yap1 mRNA, % UTC ([6]; 5 μM): 5 % UTC
Yap1 mRNA, % UTC ([7]; 0.002 μM): 0 % UTC
Yap1 mRNA, % UTC ([7]; 0.008 μM): 2 % UTC
Yap1 mRNA, % UTC ([7]; 0.04 μM): 26 % UTC
Yap1 mRNA, % UTC ([7]; 0.2 μM): 57 % UTC
Yap1 mRNA, % UTC ([7]; 1 μM): 96 % UTC
IC50 [7]: 20 nM
ALB [8]: 4.0 g/dL
ALP [8]: 1445 IU/L
ALT [8]: 40 IU/L
AST [8]: 58 IU/L
BUN [8]: 22 mg/dL
CREA [8]: 0.8 mg/dL
GGT [8]: 85 IU/L
GLO [8]: 2.7 g/dL
GLU [8]: 69 mg/dL
HDL [8]: 115 mg/dL
LDL [8]: 57 mg/dL
TBIL [8]: 0.2 mg/dL
TG [8]: 25 mg/dL
TP [8]: 6.7 g/dL

1198728 (TATTAGAGTATGTGGC; modified gapmer, further chemistry not given here) [compound 1198728]
URINE P/C ratio (total protein to creatinine ratio) [1]: 7
BAS [2]: 0.5%
EOS [2]: 2.2%
HCT [2]: 47%
HGB [2]: 14 g/dL
LUC [2]: 0.9%
LYM [2]: 64%
MCH [2]: 23 pg
MCHC [2]: 29 g/dL
MCV [2]: 80 fL
MON [2]: 2.9%
NEU [2]: 29%
PLT [2]: 428 10^3/μL
RBC [2]: 5.9e+06 µL⁻¹
RCDW [2]: 12%
Retic [2]: 1.3%
WBC [2]: 10700 µL⁻¹
MPV [2]: 8.0 fL
APTT [3]: 18 s
FIB [3]: 242 mg/dL
PT [3]: 9 s
ALT [4]: 54 U/L
AST [4]: 71 U/L
BUN [4]: 22 mg/dL
TBIL [4]: 0.18 mg/dL
Yap1 mRNA in tumors, % control [5]: 64 % control
Yap1 mRNA, % UTC ([6]; 0.04 μM): 71 % UTC
Yap1 mRNA, % UTC ([6]; 0.2 μM): 31 % UTC
Yap1 mRNA, % UTC ([6]; 1 μM): 15 % UTC
Yap1 mRNA, % UTC ([6]; 5 μM): 7 % UTC
Yap1 mRNA, % UTC ([7]; 0.002 μM): 1 % UTC
Yap1 mRNA, % UTC ([7]; 0.008 μM): 4 % UTC
Yap1 mRNA, % UTC ([7]; 0.04 μM): 27 % UTC
Yap1 mRNA, % UTC ([7]; 0.2 μM): 85 % UTC
Yap1 mRNA, % UTC ([7]; 1 μM): 87 % UTC
IC50 [7]: 20 nM
ALB [8]: 4.1 g/dL
ALP [8]: 1165 IU/L
ALT [8]: 58 IU/L
AST [8]: 92 IU/L
BUN [8]: 26 mg/dL
CREA [8]: 0.9 mg/dL
GGT [8]: 59 IU/L
GLO [8]: 3.2 g/dL
GLU [8]: 95 mg/dL
HDL [8]: 95 mg/dL
LDL [8]: 57 mg/dL
TBIL [8]: 0.3 mg/dL
TG [8]: 24 mg/dL
TP [8]: 7.3 g/dL
